Experimental data reported in PMC6542369 (Bioorganic & medicinal chemistry letters, 2017).

Columns and labels:
hM4 = biological target: T1, hM4 (Homo sapiens, UniProt P08173); type: cell-based; settings: for loss of potency (fold): hM4 potency relative to 10a; for hM4 activity: replacement of the fluorine with other halogens
T1 sequence (P08173 1-479): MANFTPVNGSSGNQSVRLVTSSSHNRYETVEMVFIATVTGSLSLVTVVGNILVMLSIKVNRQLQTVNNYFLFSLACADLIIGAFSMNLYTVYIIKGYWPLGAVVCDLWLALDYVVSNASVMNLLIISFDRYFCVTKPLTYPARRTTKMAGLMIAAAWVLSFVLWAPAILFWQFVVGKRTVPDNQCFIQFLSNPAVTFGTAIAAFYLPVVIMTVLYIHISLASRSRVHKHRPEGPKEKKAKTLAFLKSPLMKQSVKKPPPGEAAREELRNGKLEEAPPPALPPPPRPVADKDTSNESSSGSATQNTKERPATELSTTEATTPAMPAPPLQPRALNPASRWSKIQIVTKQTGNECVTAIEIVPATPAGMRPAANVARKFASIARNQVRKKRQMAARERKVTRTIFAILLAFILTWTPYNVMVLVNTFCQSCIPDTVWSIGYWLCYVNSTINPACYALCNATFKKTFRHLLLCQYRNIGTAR

hM2 = biological target: T2, hM2 (Homo sapiens, UniProt P08172); assay: mAChR subtype selectivity / counter screen, hM2; type: cell-based
T2 sequence (P08172 1-466): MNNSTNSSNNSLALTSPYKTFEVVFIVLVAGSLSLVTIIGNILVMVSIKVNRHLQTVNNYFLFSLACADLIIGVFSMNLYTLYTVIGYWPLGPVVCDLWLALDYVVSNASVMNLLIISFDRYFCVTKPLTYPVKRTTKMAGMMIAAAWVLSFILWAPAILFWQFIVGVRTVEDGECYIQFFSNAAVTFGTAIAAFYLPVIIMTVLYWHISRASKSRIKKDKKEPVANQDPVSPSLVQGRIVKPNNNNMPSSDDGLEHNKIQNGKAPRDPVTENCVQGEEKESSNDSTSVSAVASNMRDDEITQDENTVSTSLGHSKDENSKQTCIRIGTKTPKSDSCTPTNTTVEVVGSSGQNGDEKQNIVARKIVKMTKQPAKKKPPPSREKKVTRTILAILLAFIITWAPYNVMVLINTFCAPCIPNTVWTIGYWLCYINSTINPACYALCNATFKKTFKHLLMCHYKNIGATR

Row | SMILES | loss of potency (fold) (hM4) | also measured
1 | COc1cccc(C2CN(C(=O)c3sc4nnc(C)c(C)c4c3N)C2)c1 [Compound 10h] | > 100 fold | –
2 | COc1ccc(C2CN(C(=O)c3sc4nnc(C)c(C)c4c3N)C2)cc1 [Compound 10i] | ~ 3.5 fold | –
3 | Cc1nnc2sc(C(=O)N3CC(c4ccc(F)cc4)C3)c(N)c2c1C [Compound 10l] | – | activity at hM2 (hM2): inactive
4 | Cc1nnc2sc(C(=O)N3CC(c4ccc(Cl)cc4)C3)c(N)c2c1C [Compound 10m] | – | hM4 activity (hM4): complete loss of hM4 activity
5 | Cc1nnc2sc(C(=O)N3CC(c4ccc(Br)cc4)C3)c(N)c2c1C [Compound 10n] | – | hM4 activity (hM4): complete loss of hM4 activity
6 | Cc1nnc2sc(C(=O)N3CC(O)(c4ccccc4)C3)c(N)c2c1C [Compound 11a] | ~ 10 fold | –
7 | COC1(c2cccc(F)c2)CN(C(=O)c2sc3nnc(C)c(C)c3c2N)C1 [Compound 11b] | ~ 6 fold | –
